{
  "source": "BigSolDB 2.1",
  "data": [
    {"molecule": "Nc1nc(N)c2nc(-c3ccccc3)c(N)nc2n1", "values": [
      {"measurement": "solubility (mole fraction)", "setting": "in 1,2-dichloroethane, 283.15 K", "value": "1.72e-06"},
      {"measurement": "solubility (mole fraction)", "setting": "in 1,2-dichloroethane, 288.15 K", "value": "2.31e-06"},
      {"measurement": "solubility (mole fraction)", "setting": "in 1,2-dichloroethane, 293.15 K", "value": "3.52e-06"},
      {"measurement": "solubility (mole fraction)", "setting": "in 1,2-dichloroethane, 298.15 K", "value": "5.23e-06"},
      {"measurement": "solubility (mole fraction)", "setting": "in 1,2-dichloroethane, 303.15 K", "value": "7.52e-06"},
      {"measurement": "solubility (mole fraction)", "setting": "in 1,2-dichloroethane, 308.15 K", "value": "1.07e-05"},
      {"measurement": "solubility (mole fraction)", "setting": "in 1,2-dichloroethane, 313.15 K", "value": "1.7e-05"},
      {"measurement": "solubility (mole fraction)", "setting": "in 1,2-dichloroethane, 318.15 K", "value": "2.38e-05"},
      {"measurement": "solubility (mole fraction)", "setting": "in 1,2-dichloroethane, 323.15 K", "value": "3.55e-05"},
      {"measurement": "solubility (mole fraction)", "setting": "in 2-methoxyethanol, 283.15 K", "value": 0.00188},
      {"measurement": "solubility (mole fraction)", "setting": "in 2-methoxyethanol, 288.15 K", "value": 0.00248},
      {"measurement": "solubility (mole fraction)", "setting": "in 2-methoxyethanol, 293.15 K", "value": 0.00338},
      {"measurement": "solubility (mole fraction)", "setting": "in 2-methoxyethanol, 298.15 K", "value": 0.00454},
      {"measurement": "solubility (mole fraction)", "setting": "in 2-methoxyethanol, 303.15 K", "value": 0.00605},
      {"measurement": "solubility (mole fraction)", "setting": "in 2-methoxyethanol, 308.15 K", "value": 0.00792},
      {"measurement": "solubility (mole fraction)", "setting": "in 2-methoxyethanol, 313.15 K", "value": 0.0106},
      {"measurement": "solubility (mole fraction)", "setting": "in 2-methoxyethanol, 318.15 K", "value": 0.014},
      {"measurement": "solubility (mole fraction)", "setting": "in 2-methoxyethanol, 323.15 K", "value": 0.0181},
      {"measurement": "solubility (mole fraction)", "setting": "in DMSO, 293.15 K", "value": 0.00201},
      {"measurement": "solubility (mole fraction)", "setting": "in DMSO, 298.15 K", "value": 0.00281},
      {"measurement": "solubility (mole fraction)", "setting": "in DMSO, 303.15 K", "value": 0.00381},
      {"measurement": "solubility (mole fraction)", "setting": "in DMSO, 308.15 K", "value": 0.00512},
      {"measurement": "solubility (mole fraction)", "setting": "in DMSO, 313.15 K", "value": 0.0068},
      {"measurement": "solubility (mole fraction)", "setting": "in DMSO, 318.15 K", "value": 0.00901},
      {"measurement": "solubility (mole fraction)", "setting": "in DMSO, 323.15 K", "value": 0.0118},
      {"measurement": "solubility (mole fraction)", "setting": "in acetonitrile, 283.15 K", "value": "2.52e-06"},
      {"measurement": "solubility (mole fraction)", "setting": "in acetonitrile, 288.15 K", "value": "3.43e-06"},
      {"measurement": "solubility (mole fraction)", "setting": "in acetonitrile, 293.15 K", "value": "5.17e-06"},
      {"measurement": "solubility (mole fraction)", "setting": "in acetonitrile, 298.15 K", "value": "7.99e-06"},
      {"measurement": "solubility (mole fraction)", "setting": "in acetonitrile, 303.15 K", "value": "1.16e-05"},
      {"measurement": "solubility (mole fraction)", "setting": "in acetonitrile, 308.15 K", "value": "1.61e-05"},
      {"measurement": "solubility (mole fraction)", "setting": "in acetonitrile, 313.15 K", "value": "2.43e-05"},
      {"measurement": "solubility (mole fraction)", "setting": "in acetonitrile, 318.15 K", "value": "3.47e-05"},
      {"measurement": "solubility (mole fraction)", "setting": "in acetonitrile, 323.15 K", "value": "4.99e-05"},
      {"measurement": "solubility (mole fraction)", "setting": "in ethyl acetate, 283.15 K", "value": "2.91e-06"},
      {"measurement": "solubility (mole fraction)", "setting": "in ethyl acetate, 288.15 K", "value": "4.53e-06"},
      {"measurement": "solubility (mole fraction)", "setting": "in ethyl acetate, 293.15 K", "value": "7.32e-06"},
      {"measurement": "solubility (mole fraction)", "setting": "in ethyl acetate, 298.15 K", "value": "9.44e-06"},
      {"measurement": "solubility (mole fraction)", "setting": "in ethyl acetate, 303.15 K", "value": "1.42e-05"},
      {"measurement": "solubility (mole fraction)", "setting": "in ethyl acetate, 308.15 K", "value": "1.95e-05"},
      {"measurement": "solubility (mole fraction)", "setting": "in ethyl acetate, 313.15 K", "value": "2.8e-05"},
      {"measurement": "solubility (mole fraction)", "setting": "in ethyl acetate, 318.15 K", "value": "3.98e-05"},
      {"measurement": "solubility (mole fraction)", "setting": "in ethyl acetate, 323.15 K", "value": "6.09e-05"},
      {"measurement": "solubility (mole fraction)", "setting": "in isobutanol, 283.15 K", "value": "2.88e-06"},
      {"measurement": "solubility (mole fraction)", "setting": "in isobutanol, 288.15 K", "value": "4.02e-06"},
      {"measurement": "solubility (mole fraction)", "setting": "in isobutanol, 293.15 K", "value": "6.12e-06"},
      {"measurement": "solubility (mole fraction)", "setting": "in isobutanol, 298.15 K", "value": "8.74e-06"},
      {"measurement": "solubility (mole fraction)", "setting": "in isobutanol, 303.15 K", "value": "1.23e-05"},
      {"measurement": "solubility (mole fraction)", "setting": "in isobutanol, 308.15 K", "value": "1.71e-05"},
      {"measurement": "solubility (mole fraction)", "setting": "in isobutanol, 313.15 K", "value": "2.55e-05"},
      {"measurement": "solubility (mole fraction)", "setting": "in isobutanol, 318.15 K", "value": "3.79e-05"},
      {"measurement": "solubility (mole fraction)", "setting": "in isobutanol, 323.15 K", "value": "5.43e-05"},
      {"measurement": "solubility (mole fraction)", "setting": "in isopropanol, 283.15 K", "value": "2.02e-06"},
      {"measurement": "solubility (mole fraction)", "setting": "in isopropanol, 288.15 K", "value": "3.53e-06"},
      {"measurement": "solubility (mole fraction)", "setting": "in isopropanol, 293.15 K", "value": "4.92e-06"},
      {"measurement": "solubility (mole fraction)", "setting": "in isopropanol, 298.15 K", "value": "7.42e-06"},
      {"measurement": "solubility (mole fraction)", "setting": "in isopropanol, 303.15 K", "value": "1.06e-05"},
      {"measurement": "solubility (mole fraction)", "setting": "in isopropanol, 308.15 K", "value": "1.47e-05"},
      {"measurement": "solubility (mole fraction)", "setting": "in isopropanol, 313.15 K", "value": "2.08e-05"},
      {"measurement": "solubility (mole fraction)", "setting": "in isopropanol, 318.15 K", "value": "2.93e-05"},
      {"measurement": "solubility (mole fraction)", "setting": "in isopropanol, 323.15 K", "value": "4.19e-05"},
      {"measurement": "solubility (mole fraction)", "setting": "in methanol, 283.15 K", "value": "2.91e-05"},
      {"measurement": "solubility (mole fraction)", "setting": "in methanol, 288.15 K", "value": "4.31e-05"},
      {"measurement": "solubility (mole fraction)", "setting": "in methanol, 293.15 K", "value": "6.36e-05"},
      {"measurement": "solubility (mole fraction)", "setting": "in methanol, 298.15 K", "value": "8.42e-05"},
      {"measurement": "solubility (mole fraction)", "setting": "in methanol, 303.15 K", "value": 0.000127},
      {"measurement": "solubility (mole fraction)", "setting": "in methanol, 308.15 K", "value": 0.000169},
      {"measurement": "solubility (mole fraction)", "setting": "in methanol, 313.15 K", "value": 0.00024},
      {"measurement": "solubility (mole fraction)", "setting": "in methanol, 318.15 K", "value": 0.00032},
      {"measurement": "solubility (mole fraction)", "setting": "in methanol, 323.15 K", "value": 0.000449},
      {"measurement": "solubility (mole fraction)", "setting": "in n-butanol, 283.15 K", "value": "3.32e-06"},
      {"measurement": "solubility (mole fraction)", "setting": "in n-butanol, 288.15 K", "value": "5.33e-06"},
      {"measurement": "solubility (mole fraction)", "setting": "in n-butanol, 293.15 K", "value": "8.08e-06"},
      {"measurement": "solubility (mole fraction)", "setting": "in n-butanol, 298.15 K", "value": "1.15e-05"},
      {"measurement": "solubility (mole fraction)", "setting": "in n-butanol, 303.15 K", "value": "1.61e-05"},
      {"measurement": "solubility (mole fraction)", "setting": "in n-butanol, 308.15 K", "value": "2.11e-05"},
      {"measurement": "solubility (mole fraction)", "setting": "in n-butanol, 313.15 K", "value": "3.11e-05"},
      {"measurement": "solubility (mole fraction)", "setting": "in n-butanol, 318.15 K", "value": "4.32e-05"},
      {"measurement": "solubility (mole fraction)", "setting": "in n-butanol, 323.15 K", "value": "6.48e-05"},
      {"measurement": "solubility (mole fraction)", "setting": "in n-methylformamide, 283.15 K", "value": 0.000547},
      {"measurement": "solubility (mole fraction)", "setting": "in n-methylformamide, 288.15 K", "value": 0.000726},
      {"measurement": "solubility (mole fraction)", "setting": "in n-methylformamide, 293.15 K", "value": 0.00103},
      {"measurement": "solubility (mole fraction)", "setting": "in n-methylformamide, 298.15 K", "value": 0.00143},
      {"measurement": "solubility (mole fraction)", "setting": "in n-methylformamide, 303.15 K", "value": 0.00197},
      {"measurement": "solubility (mole fraction)", "setting": "in n-methylformamide, 308.15 K", "value": 0.00264},
      {"measurement": "solubility (mole fraction)", "setting": "in n-methylformamide, 313.15 K", "value": 0.00353},
      {"measurement": "solubility (mole fraction)", "setting": "in n-methylformamide, 318.15 K", "value": 0.00461},
      {"measurement": "solubility (mole fraction)", "setting": "in n-methylformamide, 323.15 K", "value": 0.00583},
      {"measurement": "solubility (mole fraction)", "setting": "in n-propanol, 283.15 K", "value": "4.24e-06"},
      {"measurement": "solubility (mole fraction)", "setting": "in n-propanol, 288.15 K", "value": "6.13e-06"},
      {"measurement": "solubility (mole fraction)", "setting": "in n-propanol, 293.15 K", "value": "9.12e-06"},
      {"measurement": "solubility (mole fraction)", "setting": "in n-propanol, 298.15 K", "value": "1.43e-05"},
      {"measurement": "solubility (mole fraction)", "setting": "in n-propanol, 303.15 K", "value": "2.02e-05"},
      {"measurement": "solubility (mole fraction)", "setting": "in n-propanol, 308.15 K", "value": "2.82e-05"},
      {"measurement": "solubility (mole fraction)", "setting": "in n-propanol, 313.15 K", "value": "3.88e-05"},
      {"measurement": "solubility (mole fraction)", "setting": "in n-propanol, 318.15 K", "value": "5.29e-05"},
      {"measurement": "solubility (mole fraction)", "setting": "in n-propanol, 323.15 K", "value": "7.03e-05"},
      {"measurement": "solubility (mole fraction)", "setting": "in water, 283.15 K", "value": "1.07e-06"},
      {"measurement": "solubility (mole fraction)", "setting": "in water, 288.15 K", "value": "1.29e-06"},
      {"measurement": "solubility (mole fraction)", "setting": "in water, 293.15 K", "value": "1.51e-06"},
      {"measurement": "solubility (mole fraction)", "setting": "in water, 298.15 K", "value": "1.79e-06"},
      {"measurement": "solubility (mole fraction)", "setting": "in water, 303.15 K", "value": "2.16e-06"},
      {"measurement": "solubility (mole fraction)", "setting": "in water, 308.15 K", "value": "2.64e-06"},
      {"measurement": "solubility (mole fraction)", "setting": "in water, 313.15 K", "value": "3.13e-06"},
      {"measurement": "solubility (mole fraction)", "setting": "in water, 318.15 K", "value": "3.76e-06"},
      {"measurement": "solubility (mole fraction)", "setting": "in water, 323.15 K", "value": "4.61e-06"}
    ]}
  ]
}
